Data: article PMC12051620, “Molecular basis underlying the specificity of an antagonist AA92593 for mammalian melanopsins” (The Journal of Biological Chemistry, 2025)

Key:
Test in all cases: GsX GloSensor assay with Gsα/q11
Format in all cases: cell-based
[1] = target: T1, human melanopsin F94^2.61C mutant (Homo sapiens, UniProt Q9UHM6, F127C); conditions: 16.7 μM AA92593, COS-1 cells, difference not statistically significant
T1 construct: the C-terminal amino acid residues (94, 140, 200, 214, 296, and 308 residues); expressed in transfected cells; host or cells: COS-1
Description: (§1) We substituted the residues Phe-94^2.61, Ser-188^ECL2, and Ser-269^6.52 in human melanopsin (Fig. 2, A and B) and examined the inhibitory effect of AA92593 on these mutants. Substitution of these amino acid residues with the corresponding amino acids in non-mammalian-type melanopsins (F94^2.61C, S188^ECL2T, and S269^6.52A) reduced the inhibitory effect of AA92593 compared to its effect on WT (Fig. 2, C–E). […] The antagonistic effect of AA92593 was reduced by ∼21% and ∼24% in the S188^ECL2T and S269^6.52A mutants, respectively (Fig. 2, D, E, and G). […] The volume change in side chain would affect arrangement of the amino acid residues around AA92593 (see below).
(§2) For GloSensor assay, opsins, GloSensor assay sensor (coded by pGlo-22F), and NanoBiT-tagged G proteins were transiently expressed in COS-1 cells (kindly provided from Dr David Farrens, Oregon Health and Science University) using PEI as described previously ([24], [52]). For the GsX GloSensor assay ([12], [13]), each well of a 96-well assay plate (Corning) was transfected with 50 ng opsin plasmid, 16.7 ng G protein plasmid, 50 ng pGlo-22F plasmid (Promega), and 500 ng PEI in 25 μl Opti-mem and 75 μl Dulbecco's modified Eagle's medium (D-MEM). […] For GFP-fluorescence microscopy, a 35-mm cell culture dish (IWAKI) was transfected with 2 μg melanopsin-GFP plasmid and 8 μg PEI in 400 μl Opti-mem and 1.2 ml D-MEM. […]
(§3) The transfected COS-1 cells were incubated at 37 °C, 5% CO2 for 2 days, and the medium was aspirated and exchanged with 50 μl of HBSS (145 mM NaCl, 10 mM D-glucose, 5 mM KCl, 1 mM MgCl2, 1.7 mM CaCl2, 1.5 mM NaHCO3, 10 mM Hepes, pH 7.4), containing 33.3, 20, 10, 2, 0.2, 0.02, 0.002, or 0 μM AA92593, 0.5% dimetyl sulfoxide (DMSO), and 4% (vol/vol) GloSensor cAMP reagent stock solution. […] Then, the cells were incubated at room temperature for 1 h, and luminescence changes were monitored. After incubation of the cells with AA92593, luminescence measurement was interrupted, the plate was ejected, and the cells were added with 50 μl of HBSS containing 0.2 μM 9-cis-retinal. […] Luminescence was measured using GM-2000 or GM-3510 microplate reader (Promega). Luminescence level of each well was measured every 30 s with integration time of 0.6 to 0.9 s. To illuminate opsins, luminescence measurement was interrupted, the plate was ejected, and the plate was illuminated by white light with CN-160 LED video light (light intensity, ∼9 mW/cm^2) (NEEWER). […] After illumination, luminescence measurement was resumed. The measured luminescence levels were normalized to the level at the starting point (time = 0 min). […]

[2] = target: T2, human melanopsin S188^ECL2A mutant (Homo sapiens, UniProt Q9UHM6, S222A); conditions: 16.7 μM AA92593, COS-1 cells
T2 construct: expressed in transfected cells; host or cells: COS-1
Description: as §1, §2, §3

[3] = test system: human melanopsin S269^6.52A mutant; conditions: 16.7 μM AA92593, COS-1 cells
Description: as §1, §2, §3

[4] = test system: human melanopsin S188^ECL2T mutant; conditions: 16.7 μM AA92593, COS-1 cells
Description: as §1, §2, §3

T2 sequence (Q9UHM6 1-384 S222A limits assumed): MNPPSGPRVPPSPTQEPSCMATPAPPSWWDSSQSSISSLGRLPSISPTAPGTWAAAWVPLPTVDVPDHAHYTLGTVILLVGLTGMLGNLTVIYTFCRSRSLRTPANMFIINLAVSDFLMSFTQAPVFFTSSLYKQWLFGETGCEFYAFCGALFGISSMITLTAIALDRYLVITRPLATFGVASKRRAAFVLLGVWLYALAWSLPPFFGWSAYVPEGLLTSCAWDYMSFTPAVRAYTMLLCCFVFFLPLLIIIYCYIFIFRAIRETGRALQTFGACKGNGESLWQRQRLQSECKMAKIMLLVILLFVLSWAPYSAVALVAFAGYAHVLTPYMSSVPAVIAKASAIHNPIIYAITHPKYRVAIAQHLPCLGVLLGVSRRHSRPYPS
T1 sequence (Q9UHM6 1-384 F127C limits assumed): as the sequence (Q9UHM6 1-384 S222A limits assumed) above, with F127C, A222S counted along it

COc1ccc(S(=O)(=O)N2CCCCC2)cc1C [AA92593]
inhibitory effect of AA92593 compared to WT [1]: consistently weaker
change in the effect of AA92593 vs WT [2]: did not induce a significant change
reduction of the antagonistic effect of AA92593 vs WT [3]: ~24%
reduction of the antagonistic effect of AA92593 vs WT [4]: ~21%
